Structures can show the parent of a compound that is named as a salt.
Target: T1, human SPNS2 (Homo sapiens, UniProt Q8IVW8)
T1 construct: expressed in transfected cells; host or cells: Saccharomyces cerevisiae strain with forced expression of a mammalian SphK and human SPNS2
T1 sequence (Q8IVW8 1-549): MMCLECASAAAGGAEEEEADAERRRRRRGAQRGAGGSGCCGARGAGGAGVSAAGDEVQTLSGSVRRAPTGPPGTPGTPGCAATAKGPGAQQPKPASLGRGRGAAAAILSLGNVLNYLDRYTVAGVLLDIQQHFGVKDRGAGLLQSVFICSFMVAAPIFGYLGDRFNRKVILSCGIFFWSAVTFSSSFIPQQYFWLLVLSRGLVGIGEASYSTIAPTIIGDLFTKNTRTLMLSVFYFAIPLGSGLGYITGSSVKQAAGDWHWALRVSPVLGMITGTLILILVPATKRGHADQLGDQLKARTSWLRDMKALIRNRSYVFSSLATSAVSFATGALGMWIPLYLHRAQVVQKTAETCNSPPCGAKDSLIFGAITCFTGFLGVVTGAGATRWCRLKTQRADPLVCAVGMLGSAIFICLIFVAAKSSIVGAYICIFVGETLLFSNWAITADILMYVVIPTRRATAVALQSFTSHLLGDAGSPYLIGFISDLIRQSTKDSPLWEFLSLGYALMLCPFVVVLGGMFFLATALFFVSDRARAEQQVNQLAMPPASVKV
Test: S1P transporter assay: growth of S. cerevisiae strain with forced expression of a mammalian SphK and human SPNS2
Format: cell-based
Conditions: in vitro inhibition of SPNS2; growth of S. cerevisiae strain expressing mammalian SphK and human SPNS2; compounds as their pharmaceutical salts
Procedure, shortened: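 S. cerevisiae strain with forced expression of a mammalian SphK and human SPNS2; since excess phospho-LCB inhibits yeast growth, SPNS2 inhibitors reduce growth of this strain. Inhibition measured in vitro as decreased strain growth.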

CCCCNC(=O)c1ccc(-c2noc([C@@H]3CCNC3)n2)cc1 [Compound 38o, (R)—N-butyl-4-(5-(pyrrolidin-3-yl)-1,2,4-oxadiazol-3-yl)benzamide hydrochloride]
IC50: > 2000 nM

CCCCCCCCNC(=O)c1ccc(-c2noc([C@@H]3CCNC3)n2)cc1 [Compound 38p, (R)—N-octyl-4-(5-(pyrrolidin-3-yl)-1,2,4-oxadiazol-3-yl)benzamide hydrochloride]
IC50: > 2000 nM

C/C(=N\OCCCCc1ccccc1)c1ccc(-c2noc([C@@H]3CCN(C(=N)N)C3)n2)cc1 [Compound 40a, (R)-3-(3-(4-(1-((4-phenylbutoxy)imino)ethyl)phenyl)-1,2,4-oxadiazol-5-yl)pyrrolidine-1-carboximidamide hydrochloride]
IC50: ≤ 2000 nM

C/C(=N\OCc1cc(C(F)(F)F)cc(C(F)(F)F)c1)c1ccc(-c2noc([C@@H]3CCN(C(=N)N)C3)n2)cc1 [Compound 40b, (R)-3-(3-(4-(1-(((3,5-bis(trifluoromethyl)benzyl)oxy)imino)ethyl)phenyl)-1,2,4-oxadiazol-5-yl)pyrrolidine-1-carboximidamide hydrochloride]
IC50: ≤ 2000 nM

C/C(=N\OCc1ccc(C(F)(F)F)cc1)c1ccc(-c2noc([C@@H]3CCN(C(=N)N)C3)n2)cc1 [Compound 40c, (R)-3-(3-(4-(1-(((4-(trifluoromethyl)benzyl)oxy)imino)ethyl)phenyl)-1,2,4-oxadiazol-5-yl)pyrrolidine-1-carboximidamide hydrochloride]
IC50: > 2000 nM

C/C(=N\OCc1ccc(-c2ccccc2)cc1)c1ccc(-c2noc([C@@H]3CCN(C(=N)N)C3)n2)cc1 [Compound 40d, (R)-3-(3-(4-(1-(([1,1′-biphenyl]-4-ylmethoxy)imino)ethyl)phenyl)-1,2,4-oxadiazol-5-yl)pyrrolidine-1-carboximidamide hydrochloride]
IC50: ≤ 2000 nM

C/C(=N\OCc1cccc(-c2ccccc2)c1)c1ccc(-c2noc([C@@H]3CCN(C(=N)N)C3)n2)cc1 [Compound 40e, (R)-3-(3-(4-(1-(([1,1′-biphenyl]-3-ylmethoxy)imino)ethyl)phenyl)-1,2,4-oxadiazol-5-yl)pyrrolidine-1-carboximidamide hydrochloride]
IC50: ≤ 2000 nM

C/C(=N\OC(C)c1ccccc1)c1ccc(-c2noc([C@@H]3CCN(C(=N)N)C3)n2)cc1 (some centres unmarked) [Compound 40f, hydrochloride]
IC50: > 2000 nM

C/C(=N\OCc1ccccc1)c1ccc(-c2noc([C@@H]3CCN(C(=N)N)C3)n2)cc1 [Compound 40g, (R)-3-(3-(4-(1-((benzyloxy)imino)ethyl)phenyl)-1,2,4-oxadiazol-5-yl)pyrrolidine-1-carboximidamide hydrochloride]
IC50: > 2000 nM

C/C(=N\OCc1ccc2c(c1)C(C)(C)CCC2(C)C)c1ccc(-c2noc([C@@H]3CCN(C(=N)N)C3)n2)cc1 [Compound 40h, (R)-3-(3-(4-(1-(((5,5,8,8-tetramethyl-5,6,7,8-tetrahydronaphthalen-2-yl)methoxy)imino)ethyl)phenyl)-1,2,4-oxadiazol-5-yl)pyrrolidine-1-carboximidamide hydrochloride]
IC50: ≤ 2000 nM

CCCCCCCO/N=C(\C)c1ccc(-c2noc([C@@H]3CCN(C(=N)N)C3)n2)cc1 [Compound 40i, (R)-3-(3-(4-(1-((heptyloxy)imino)ethyl)phenyl)-1,2,4-oxadiazol-5-yl)pyrrolidine-1-carboximidamide hydrochloride]
IC50: ≤ 2000 nM

CCCCCCCCCO/N=C(\C)c1ccc(-c2noc([C@@H]3CCN(C(=N)N)C3)n2)cc1 [Compound 40j, (R)-3-(3-(4-(1-((nonyloxy)imino)ethyl)phenyl)-1,2,4-oxadiazol-5-yl)pyrrolidine-1-carboximidamide hydrochloride]
IC50: > 2000 nM

C/C(=N\OCc1ccc(C(C)(C)C)cc1)c1ccc(-c2noc([C@@H]3CCN(C(=N)N)C3)n2)cc1 [Compound 40k, (R)-3-(3-(4-(1-(((4-(tert-butyl)benzyl)oxy)imino)ethyl)phenyl)-1,2,4-oxadiazol-5-yl)pyrrolidine-1-carboximidamide hydrochloride]
IC50: ≤ 2000 nM

CCCCCO/N=C(\C)c1ccc(-c2noc([C@@H]3CCN(C(=N)N)C3)n2)cc1 [Compound 40l, (R)-3-(3-(4-(1-((pentyloxy)imino)ethyl)phenyl)-1,2,4-oxadiazol-5-yl)pyrrolidine-1-carboximidamide hydrochloride]
IC50: > 2000 nM

C/C(=N\OCc1ccc(F)cc1)c1ccc(-c2noc([C@@H]3CCN(C(=N)N)C3)n2)cc1 [Compound 40m, (R)-3-(3-(4-(1-(((4-fluorobenzyl)oxy)imino)ethyl)phenyl)-1,2,4-oxadiazol-5-yl)pyrrolidine-1-carboximidamide hydrochloride]
IC50: > 2000 nM

C/C(=N\OCc1ccc(Br)cc1)c1ccc(-c2noc([C@@H]3CCN(C(=N)N)C3)n2)cc1 [Compound 40n, (R)-3-(3-(4-(1-(((4-bromobenzyl)oxy)imino)ethyl)phenyl)-1,2,4-oxadiazol-5-yl)pyrrolidine-1-carboximidamide hydrochloride]
IC50: > 2000 nM

CCCCCCCCNC(=O)c1ccc(-c2noc([C@@H]3CCN(C(=N)N)C3)n2)cc1 [Compound 40p, (R)-4-(5-(1-carbamimidoylpyrrolidin-3-yl)-1,2,4-oxadiazol-3-yl)-N-octylbenzamide hydrochloride]
IC50: > 2000 nM

Source: patent US12590083B2, “Inhibitors of spinster homolog 2 (SPNS2) for use in therapy” (University of Virginia Patent Foundation, priority 2019, dated 2026)
